Source: patent publication US11884661B2, “3-substituted propionic acids as αV integrin inhibitors” (BRISTOL-MYERS SQUIBB COMPANY, priority 2016, dated 2024)

molecular target: T1, human αVβ6 (Homo sapiens, UniProt P06756+P18564); assay: human αVβ6 HTRF binding assay; details: recombinant human αVβ6 integrin, FITC-conjugated fibronectin
T1 construct: purchased R & D systems 3817-AV
Procedure: All binding assays used the HTRF (homogeneous time resolved fluorescence) technology from Cisbio International, therefore all assays are described as HTRF binding assays. The assay results for the Examples are listed above together with the characterization data. The HTRF binding assays are established for the following integrins: human αVβ6, human αVβ1, human αVβ3, human αVβ5, and human αVβ8. All assays used the following assay buffer: 20 mM Tris, pH 7.4, 1 mM MgCl2, 1 mM MnCl2, 0.01% Tween 20, and 0.01% BSA. Alternatively, a SPA-based assay was used for evaluation of receptor binding.
The following describes the components and a representative procedure for the human αVβ6 HTRF binding assay: Recombinant human αVβ6 Integrin (R & D systems, 3817-AV) was biotinylated. Biotinylated human αVβ6 Integrin was added to assay vessel at a final concentration of 1.25 nM. FITC-conjugated fibronectin (Cytoskeleton, FNR02) was then added at the final concentration of 5 nM. The mixture was centrifuged at 600 rpm for three minutes using Thermo Fisher Heraeus Multifuge X3 centrifuge and then incubated at RT for an hour. Streptavidin Terbium (Cisbio international 610STLB) was then added at the final concentration of 0.625 nM. The resulting mixture was centrifuged at 600 rpm for three minutes using Thermo Fisher Heraeus Multifuge X3 centrifuge and then incubated at room temperature overnight in dark before reading HTRF signals.

T1 sequence (P06756 31-992 limits assumed): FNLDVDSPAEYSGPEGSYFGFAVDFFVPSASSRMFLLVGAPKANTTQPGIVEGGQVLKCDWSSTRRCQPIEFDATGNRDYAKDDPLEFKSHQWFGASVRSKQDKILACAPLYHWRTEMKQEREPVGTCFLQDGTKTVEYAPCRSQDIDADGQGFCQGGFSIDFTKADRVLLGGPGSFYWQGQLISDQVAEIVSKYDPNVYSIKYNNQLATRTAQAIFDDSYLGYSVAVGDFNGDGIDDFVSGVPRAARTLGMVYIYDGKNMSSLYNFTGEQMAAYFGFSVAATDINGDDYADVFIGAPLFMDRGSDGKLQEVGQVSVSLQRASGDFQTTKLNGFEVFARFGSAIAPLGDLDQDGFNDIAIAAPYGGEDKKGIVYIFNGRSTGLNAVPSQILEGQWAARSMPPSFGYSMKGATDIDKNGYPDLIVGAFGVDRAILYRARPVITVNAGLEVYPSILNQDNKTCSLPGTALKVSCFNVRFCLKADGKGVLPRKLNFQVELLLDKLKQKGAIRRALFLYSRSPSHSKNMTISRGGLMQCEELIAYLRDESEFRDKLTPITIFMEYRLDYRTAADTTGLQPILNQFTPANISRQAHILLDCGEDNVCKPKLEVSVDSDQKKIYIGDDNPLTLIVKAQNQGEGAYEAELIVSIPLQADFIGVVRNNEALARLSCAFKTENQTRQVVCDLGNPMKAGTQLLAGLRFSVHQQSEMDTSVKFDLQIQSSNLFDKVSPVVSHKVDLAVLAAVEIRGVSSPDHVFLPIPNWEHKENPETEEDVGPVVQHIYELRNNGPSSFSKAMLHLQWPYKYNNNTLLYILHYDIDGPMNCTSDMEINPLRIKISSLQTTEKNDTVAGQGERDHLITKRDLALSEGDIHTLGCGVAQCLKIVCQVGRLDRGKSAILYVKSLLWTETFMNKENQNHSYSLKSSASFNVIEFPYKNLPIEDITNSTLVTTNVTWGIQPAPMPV
T1 sequence (P18564 22-707 limits assumed): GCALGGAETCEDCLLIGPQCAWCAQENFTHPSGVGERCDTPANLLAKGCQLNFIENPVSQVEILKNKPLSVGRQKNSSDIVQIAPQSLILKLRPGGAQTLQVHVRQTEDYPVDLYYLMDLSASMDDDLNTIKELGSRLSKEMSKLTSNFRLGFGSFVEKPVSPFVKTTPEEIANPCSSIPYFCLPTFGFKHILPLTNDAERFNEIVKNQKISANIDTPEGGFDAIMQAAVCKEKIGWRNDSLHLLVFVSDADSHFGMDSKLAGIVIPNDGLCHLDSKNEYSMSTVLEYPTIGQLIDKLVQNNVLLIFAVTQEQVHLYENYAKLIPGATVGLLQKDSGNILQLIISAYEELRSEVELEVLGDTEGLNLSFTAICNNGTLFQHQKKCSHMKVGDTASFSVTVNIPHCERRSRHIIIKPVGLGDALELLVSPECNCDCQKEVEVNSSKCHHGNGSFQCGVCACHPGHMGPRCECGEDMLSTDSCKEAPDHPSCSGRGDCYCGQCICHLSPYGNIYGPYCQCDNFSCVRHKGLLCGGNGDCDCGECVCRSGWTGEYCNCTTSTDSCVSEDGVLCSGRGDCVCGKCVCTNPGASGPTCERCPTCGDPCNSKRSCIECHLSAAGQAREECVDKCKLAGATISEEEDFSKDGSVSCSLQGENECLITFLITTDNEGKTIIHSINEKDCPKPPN

SMILES	IC50 [nM]
Cc1ncc(C(CC(=O)O)n2nccc2CCC[C@@H]2CCc3cccnc3N2)cn1 (mixture of isomers) [Example 91, 3-(2-methylpyrimidin-5-yl)-3-(5-(3-((R)-1,2,3,4-tetrahydro-1,8-naphthyridin-2-yl)propyl)-1H-pyrazol-1-yl)propanoic acid]	1400
COc1ncc(C(CC(=O)O)n2nccc2CCC[C@H]2CCc3cccnc3N2)cn1 (mixture of isomers) [Example 92, 3-(2-methoxypyrimidin-5-yl)-3-(5-(3-((S)-1,2,3,4-tetrahydro-1,8-naphthyridin-2-yl)propyl)-1H-pyrazol-1-yl)propanoic acid]	6700
COc1ncc(C(CC(=O)O)n2nccc2CCC[C@@H]2CCc3cccnc3N2)cn1 (mixture of isomers) [Example 93, 3-(2-methoxypyrimidin-5-yl)-3-(5-(3-((R)-1,2,3,4-tetrahydro-1,8-naphthyridin-2-yl)propyl)-1H-pyrazol-1-yl)propanoic acid]	1030
O=C(NC(Cc1cnn(CCc2ccc3c(n2)NCCC3)c1)C(=O)O)OCc1ccccc1 (racemic) [Example 5, (±)-2-(((Benzyloxy)carbonyl)amino)-3-(1-(2-(5,6,7,8-tetrahydro-1,8-naphthyridin-2-yl)ethyl)-1H-pyrazol-4-yl)propanoic acid]	5000
O=C(NC(Cc1cnn(CCCc2ccc3c(n2)NCCC3)c1)C(=O)O)OCc1ccccc1 (racemic) [Example 6, (±)-2-(((Benzyloxy)carbonyl)amino)-3-(1-(3-(5,6,7,8-tetrahydro-1,8-naphthyridin-2-yl)propyl)-1N-pyrazol-4-yl)propanoic acid]	80
COc1ccc(C(CC(=O)O)c2cnn(CCCc3ccc4c(n3)NCCC4)c2)cn1 (racemic) [Example 7, (±)-3-(6-Methoxypyridin-3-yl)-3-(1-(3-(5,6,7,8-tetrahydro-1,8-naphthyridin-2-yl)propyl)-1H-pyrazol-4-yl)propanoic acid]	323
COc1ccc(C(CC(=O)O)c2cc(CCCc3ccc4c(n3)NCCC4)c[nH]2)cc1F (racemic) [Example 10, (±)-3-(3-Fluoro-4-methoxyphenyl)-3-(4-(3-(5,6,7,8-tetrahydro-1,8-naphthyridin-2-yl)propyl)-1H-pyrrol-2-yl)propanoic acid]	136
COc1ccc(C(CC(=O)O)c2cnn(CCCCc3ccc4c(n3)NCCC4)c2)cn1 (racemic) [Example 11, (±)-3-(6-Methoxypyridin-3-yl)-3-(1-(4-(5,6,7,8-tetrahydro-1,8-naphthyridin-2-yl)butyl)-1H-pyrazol-4-yl)propanoic acid]	100
Cc1ncc(C(CC(=O)O)n2ccc(CCCc3ccc4c(n3)NCCC4)n2)cn1 (racemic) [Example 22, (±)-3-(2-Methylpyrimidin-5-yl)-3-(3-(3-(5,6,7,8-tetrahydro-1,8-naphthyridin-2-yl)propyl)-1H-pyrazol-1-yl)propanoic acid]	64
CCCCOC(=O)NC(Cc1cnn(CCc2ccc3c(n2)NCCC3)c1)C(=O)O (racemic) [Example 23, (±)-2-((Butoxycarbonyl)amino)-3-(1-(2-(5,6,7,8-tetrahydro-1,8-naphthyridin-2-yl)ethyl)-1H-pyrazol-4-yl)propanoic acid]	1020
COc1ccc(C(CC(=O)O)c2cnn(CCCc3ccc4c(n3)NCCC4)c2)cc1F (racemic) [Example 24, (±)-3-(3-Fluoro-4-methoxyphenyl)-3-(1-(3-(5,6,7,8-tetrahydro-1,8-naphthyridin-2-yl)propyl)-1H-pyrazol-4-yl)propanoic acid]	117
Cc1cc(C)c(S(=O)(=O)NC(Cc2cnn(CCCc3ccc4c(n3)NCCC4)c2)C(=O)O)c(C)c1 (racemic) [Example 25, (±)-3-(1-(3-(5,6,7,8-Tetrahydro-1,8-naphthyridin-2-yl)propyl)-1H-pyrazol-4-yl)-2-((2,4,6-trimethylphenyl)sulfonamido)propanoic acid]	395
O=C(O)CC(c1cc(Cl)cc(Cl)c1)c1cnn(CCCc2ccc3c(n2)NCCC3)c1 (racemic) [Example 26, (±)-3-(3,5-Dichlorophenyl)-3-(1-(3-(5,6,7,8-tetrahydro-1,8-naphthyridin-2-yl)propyl)-1H-pyrazol-4-yl)propanoic acid]	27
O=C(O)CC(c1cnc2ccccc2n1)n1ccc(CCCc2ccc3c(n2)NCCC3)n1 (racemic) [Example 28, (±)-3-(Quinoxalin-2-yl)-3-(3-(3-(5,6,7,8-tetrahydro-1,8-naphthyridin-2-yl)propyl)-1H-pyrazol-1-yl)propanoic acid]	5500
O=C(O)CC(c1cnc2nccnc2c1)n1ccc(CCCc2ccc3c(n2)NCCC3)n1 (racemic) [Example 33, (±)-3-(Pyrido[2,3-b]pyrazin-7-yl)-3-(3-(3-(5,6,7,8-tetrahydro-1,8-naphthyridin-2-yl)propyl)-1H-pyrazol-1-yl)propanoic acid]	2800
COc1ncc(C(CC(=O)O)n2ccc(CCCc3ccc4c(n3)NCCC4)n2)cn1 (racemic) [Example 34, (±)-3-(2-Methoxypyrimidin-5-yl)-3-(3-(3-(5,6,7,8-tetrahydro-1,8-naphthyridin-2-yl)propyl)-1H-pyrazol-1-yl)propanoic acid]	10
O=C(O)CC(c1cnc2c(c1)OCCO2)n1ccc(CCCc2ccc3c(n2)NCCC3)n1 (racemic) [Example 35, (±)-3-(2,3-Dihydro-[1,4]dioxino[2,3-b]pyridin-7-yl)-3-(3-(3-(5,6,7,8-tetrahydro-1,8-naphthyridin-2-yl)propyl)-1H-pyrazol-1-yl)propanoic acid]	17
COc1ccc(C(CC(=O)O)n2ccc(CCCc3ccc4c(n3)NCCC4)n2)cc1F (racemic) [Example 49, (±)-3-(3-Fluoro-4-methoxyphenyl)-3-(3-(3-(5,6,7,8-tetrahydro-1,8-naphthyridin-2-yl)propyl)-1H-pyrazol-1-yl)propanoic acid]	24
O=C(O)CC(c1cnc(N2CCC2)nc1)n1ccc(CCCc2ccc3c(n2)NCCC3)n1 (racemic) [Example 50, (±)-3-(2-(Azetidin-1-yl)pyrimidin-5-yl)-3-(3-(3-(5,6,7,8-tetrahydro-1,8-naphthyridin-2-yl)propyl)-1H-pyrazol-1-yl)propanoic acid]	6.4
O=C(O)CC(c1cnc(N2CCC2)nc1)n1nccc1CCCc1ccc2c(n1)NCCC2 (racemic) [Example 53, (±)-3-(2-(Azetidin-1-yl)pyrimidin-5-yl)-3-(5-(3-(5,6,7,8-tetrahydro-1,8-naphthyridin-2-yl)propyl)-1H-pyrazol-1-yl)propanoic acid]	140
COc1ccc(C(CC(=O)O)n2ccc(CCCc3ccc4c(n3)NCCC4)n2)nn1 (racemic) [Example 57, (±)-3-(6-Methoxypyridazin-3-yl)-3-(3-(3-(5,6,7,8-tetrahydro-1,8-naphthyridin-2-yl)propyl)-1H-pyrazol-1-yl)propanoic acid]	51
COc1ccc(C(CC(=O)O)n2nccc2CCCc2ccc3c(n2)NCCC3)nn1 (racemic) [Example 58, (±)-3-(6-Methoxypyridazin-3-yl)-3-(5-(3-(5,6,7,8-tetrahydro-1,8-naphthyridin-2-yl)propyl)-1H-pyrazol-1-yl)propanoic acid]	2100
COc1cnc(C(CC(=O)O)n2ccc(CCCc3ccc4c(n3)NCCC4)n2)cn1 (racemic) [Example 59, (±)-3-(5-Methoxypyrazin-2-yl)-3-(3-(3-(5,6,7,8-tetrahydro-1,8-naphthyridin-2-yl)propyl)-1H-pyrazol-1-yl)propanoic acid]	110
COc1cnc(C(CC(=O)O)n2nccc2CCCc2ccc3c(n2)NCCC3)cn1 (racemic) [Example 60, (±)-3-(5-Methoxypyrazin-2-yl)-3-(5-(3-(5,6,7,8-tetrahydro-1,8-naphthyridin-2-yl)propyl)-1H-pyrazol-1-yl)propanoic acid]	500
COc1ccc(C(CC(=O)O)n2cc(CCCCc3ccc4c(n3)NCCC4)cn2)cn1 (racemic) [Example 61, (±)-3-(6-Methoxypyridin-3-yl)-3-(4-(4-(5,6,7,8-tetrahydro-1,8-naphthyridin-2-yl)butyl)-1H-pyrazol-1-yl)propanoic acid]	56
COc1ccc(C(CC(=O)O)n2cc(CCCc3ccc4c(n3)NCCC4)cn2)cn1 (racemic) [Example 62, (±)-3-(6-Methoxypyridin-3-yl)-3-(4-(3-(5,6,7,8-tetrahydro-1,8-naphthyridin-2-yl)propyl)-1H-pyrazol-1-yl)propanoic acid]	170
O=C(O)CC(c1cncc(N2CCCC2)c1)n1ccc(CCCc2ccc3c(n2)NCCC3)n1 (racemic) [Example 66, (±)-3-[5-(pyrrolidin-1-yl)pyridin-3-yl]-3-{3-[3-(5,6,7,8-tetrahydro-1,8-naphthyridin-2-yl)propyl]-1H-pyrazol-1-yl}propanoic acid]	21
COc1ccc(C(CC(=O)O)n2nccc2CCCc2ccc3c(n2)NCCC3)cc1F (racemic) [Example 71, (±)-3-(3-fluoro-4-methoxyphenyl)-3-{5-[3-(5,6,7,8-tetrahydro-1,8-naphthyridin-2-yl)propyl]-1H-pyrazol-1-yl}propanoic acid]	15
